From ChEMBL document CHEMBL5252553, “Synthesis and biological activities of drugs for the treatment of osteoporosis” (Eur J Med Chem, 2020)

Assay: n-Octanol/water partition coefficient, log P of the compound
Assay type: physicochemical

Row | Structure (SMILES) | logP
1 | CCCCCCCCCCCCCC(=O)NCCCC(O)(P(=O)(O)O)P(=O)(O)O | 0.045
2 | CCCCCCCCCCCC(=O)NCCCC(O)(P(=O)(O)O)P(=O)(O)O | 0.027
3 | CCCCCCCCCCCCCCCCCC(=O)NCCCC(O)(P(=O)(O)O)P(=O)(O)O | 0.063
4 | CCCCCCCCCCCCCCCC(=O)NCCCC(O)(P(=O)(O)O)P(=O)(O)O | 0.053
